# Results published in patent publication US9856273B2, “ETP derivatives” (priority 2012, dated 2018).
# What was measured:
# MV4-11 AML SQ xenografts = type: in vivo, mouse; conditions: MV4-11 xenograft, 5 mg/kg or 10 mg/kg orally once daily for 20 days
# Description: Human MV4-11 acute myeloid leukemia (AML) cancer cells (5×10^6) that have FLT-ITD mutations were resuspended in serum-free RPMI1640 medium and Matrigel (ration of 1:1) and subcutaneously injected into the flank of 5-6 weeks old female NOD/SCID/IL-2rg(ko)(NSG). When palpable tumor sizes reached at approximately 50 mm^3, mice were divided into three groups (vehicle=9, 5 mg/kg dose group=8, 10 dose mg/kg group=8). Then, S enantiomer was orally administered at 5 mg/kg or 10 mg/kg with vehicle (10% DMSO+30% Solutol+60% saline), once daily for 20 days. Tumor volumes were calculated by the formula 1/2a×b^2, where a is the long diameter, and b is the short diameter. Tumor volumes correlate with tumor weights. The statistical significance of group differences was analyzed using a Student's t-test with the two-tailed distribution. P values less than 0.05 were considered statistically significant.
# MOLM-13 AML cells = assay: MTS cell viability assay; type: cell-based
# Description: IC50 Determinations for Ovarian, Liver, Pancreatic, CML, AML Cancer Cell Lines (See e.g. FIGS. 4, 6A-6C, 21, 22A, 22B, 23, 24A-24C, 25A, 25B and 34): MTS assays were performed for cell viability. SKOV3 ovarian cancer, Huh-7 hepatocellular carcinoma, MIA-PaCa2 pancreatic cancer, KCL-22 CML, T315I mutant KCL-22 CML, MOLM-13 AML and MV4-11 AML cells were seeded in 96-well plates (5000 cells/well for solid tumors, 10000 cells/well for blood tumors), incubated overnight at 37° C. in 5% CO2, and exposed to racemic ETP69 or S enantiomer in a dose-dependent manner for 48 h. Dimethyl sulfoxide (DMSO) was used as the vehicle control. Viable cell numbers were determined by tetrazolium conversion to its formazan dye and absorbance was measured at 490 nm using an automated ELISA plate reader. Each experiment was performed in quadruplicate.
Compound,toxicity symptoms (MV4-11 AML SQ xenografts),increase in inhibitory capacity when compared to the (R) enantiomer (MOLM-13 AML cells) [fold]
"CN1C(=O)[C@@]23C[C@](C)(C#N)[C@H](c4ccc5c(c4)OCO5)N2C(=O)[C@]1(C)SS3 (single isomer, unassigned) [ETP417]",no observable toxicity symptoms,–
"CN1C(=O)[C@@]23C[C@](C)(C#N)[C@H](c4ccc5c(c4)OCO5)N2C(=O)[C@]1(C)SS3 [(S) enantiomer of ETP69, (3S,6S,7S,8aS)-6-(benzo[d][1,3]dioxol-5-yl)-2,3,7-trimethyl-1,4-dioxohexahydro-6H-3,8a-epidithiopyrrolo[1,2-a]pyrazine-7-carbonitrile]",–,~4
